From patent publication US12011441B2, “Pimobendan for the reduction of heart size and/or the delay of onset of clinical symptoms in patients with asymptomatic heart failure due to mitral valve disease” (Boehringer Ingelheim Vetmedica GmbH, priority 2016, dated 2024)

System: dogs with MMVD and echocardiographic and radiographic evidence of cardiomegaly
Excerpt: Vertebral heart sum, another measure of heart size, was obtained at regular intervals—every eight months—from those animals that remained in the study. There are various ways in which this can be compared between groups. The most useful way to summarise and compare the average vertebral heart score in each group for the duration of the study is to generate an “area under the curve” value that represents a single summary statistic for each dog from which more than two measurements were obtained [Matthews J N et al., BMJ 1990, 300(6719): 230-235]. This method has been used previously in veterinary studies [Häggström J et al., J Vet Intern Med 2013, 27(6): 1441-1451].

In the case of `COc1ccc(-c2nc3ccc(C4=NNC(=O)CC4C)cc3[nH]2)cc1` (centres unmarked) [pimobendan, 4,5-dihydro-6-[2-(4-methoxyphenyl)-1H-benzimidazol-5-yl]-5-methyl-3(2H)-pyridazinone], the “VHS Median” value (average vertebral heart score over the duration of the study, placebo 11.90, P = 0.0009) is reported as 11.54, the “difference in median vertebral heart score vs placebo” value (averaged over the entire duration of the study (area under the curve), dogs remaining in the study) is reported as “approximately 0.35 vertebrae” and the “rate or type of potential adverse events observed” value (dog, in vivo) is reported as “no difference between groups”. For the same compound, the safety and tolerability (dog, in vivo) was “safe and well tolerated” and the “heart size compared to the placebo group” value (measured over the first 35 days of the study, P<0.0001) was “reduction in heart size”.
